Measurements reported in patent publication US8309558B2, “Compounds for the treatment of hepatitis C” (Bristol-Myers Squibb Company, priority 2008, dated 2012).

Assays:
[1] = target: T1, HCV NS5B RdRp genotype 1b (Hepatitis C virus genotype 1b, UniProt Q9WMX2); assay: Standard HCV NS5B RdRp enzyme assay; type: biochemical; conditions: Table 1a; HCV NS5B RdRp genotype 1b; read-out: IC50
T1 construct: The protein was expressed with an 18 amino acid C-terminal truncation to enhance the solubility; made in house; host or cells: E. coli BL21(DE3), pET21a vector
How it was run: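 Radiometric SPA measuring 3H-UMP incorporation on polyA/biotin-oligo-dT12 (6 nM/180 nM), 0.29 μM total UTP. Enzyme: NS5B 1b lacking last 18 residues, 28 nM final, 30° C for 60 min in 20 mM Hepes pH 7.5, 2.5 mM MgCl2, 2% DMSO. IC50 from seven-point curves.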

HCV replicon cells = assay: HCV replicon FRET / luciferase assay (96-well plates); type: cell-based; conditions: Hepatitis C virus, Table 1a; HCV replicon; read-out: EC50
How it was run: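 Readout was NS3 protease cleavage of an EDANS/DABCYL FRET peptide (20 μM final) in lysed HCV replicon cells, or Renilla luciferase in reporter replicons. Background came from wells with the highest level of control protease inhibitor. EC50 marked the concentration giving 50% signal reduction.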

T1 sequence (Q9WMX2 2420-2992): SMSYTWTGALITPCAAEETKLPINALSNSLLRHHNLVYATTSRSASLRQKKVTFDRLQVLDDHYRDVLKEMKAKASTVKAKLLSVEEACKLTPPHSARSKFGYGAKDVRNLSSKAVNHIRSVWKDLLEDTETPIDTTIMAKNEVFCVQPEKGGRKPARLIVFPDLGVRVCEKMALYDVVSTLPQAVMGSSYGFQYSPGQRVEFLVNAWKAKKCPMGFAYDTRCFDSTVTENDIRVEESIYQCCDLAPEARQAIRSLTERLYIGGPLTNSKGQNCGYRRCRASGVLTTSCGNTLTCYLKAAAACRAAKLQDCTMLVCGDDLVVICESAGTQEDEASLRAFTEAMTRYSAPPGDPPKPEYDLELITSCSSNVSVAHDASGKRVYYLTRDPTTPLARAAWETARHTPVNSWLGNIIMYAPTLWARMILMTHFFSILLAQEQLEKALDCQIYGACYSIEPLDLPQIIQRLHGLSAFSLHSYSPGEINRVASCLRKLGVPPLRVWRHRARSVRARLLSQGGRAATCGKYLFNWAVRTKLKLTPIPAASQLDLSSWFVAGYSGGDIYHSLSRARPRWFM

| SMILES | IC50 [1] [µM] | EC50 (HCV replicon cells) [µM] |
| --- | --- | --- |
| CNC(=O)c1c(-c2ccc(F)cc2)oc2ccc(-c3cccc(C(=O)NC4CCCC4)c3)cc12 | < 0.25 | < 0.25 |
| CNC(=O)c1c(-c2ccc(F)cc2)oc2ccc(-c3cccc(C(=O)NC4CCCCC4)c3)cc12 | < 0.25 | < 0.25 |
| CNC(=O)c1c(-c2ccc(F)cc2)oc2ccc(-c3cccc(C(=O)Nc4ccccc4OC)c3)cc12 | 0.25 to 1 | < 0.25 |
| CNC(=O)c1c(-c2ccc(F)cc2)oc2ccc(-c3cccc(C(=O)NC4CCCCCC4)c3)cc12 | < 0.25 | < 0.25 |
| CNC(=O)c1c(-c2ccc(F)cc2)oc2ccc(-c3cccc(C(=O)NC(C)c4ccccc4)c3)cc12 (stereo not drawn) | < 0.25 | < 0.25 |
| CNC(=O)c1c(-c2ccc(F)cc2)oc2ccc(-c3cccc(C(=O)NC4CCC(C)CC4)c3)cc12 (stereo not drawn) | < 0.25 | < 0.25 |
| CNC(=O)c1c(-c2ccc(F)cc2)oc2ccc(-c3cccc(C(=O)NC4CCC4)c3)cc12 | < 0.25 | < 0.25 |
| CNC(=O)c1c(-c2ccc(F)cc2)oc2ccc(-c3cccc(C(=O)Nc4cc(C)ccn4)c3)cc12 | 0.25 to 1 | < 0.25 |
| CNC(=O)c1c(-c2ccc(F)cc2)oc2ccc(-c3cccc(C(=O)Nc4ccccc4O)c3)cc12 | < 0.25 | < 0.25 |
| CNC(=O)Nc1c(-c2ccc(F)cc2)oc2ccc(OC(C)C)cc12 | > 10 | > 10 |
| CNC(=O)c1c(-c2ccc(F)cc2)oc2ccc(-c3ccc(Cl)cc3C(=O)O)cc12 | 1 to 10 | > 10 |
| CNC(=O)c1c(-c2ccc(F)cc2)oc2ccc(-c3ccc(C(=O)OC(C)(C)C)cc3)cc12 | > 10 | > 10 |
| CNC(=O)c1c(-c2ccc(F)cc2)oc2ccc(-c3ccc(C(=O)O)c(F)c3)cc12 | 1 to 10 | > 10 |
| CNC(=O)c1c(-c2ccc(F)cc2)oc2ccc(-c3ccccc3/C=C/C(=O)O)cc12 | 1 to 10 | > 10 |
| CNC(=O)c1c(-c2ccc(F)cc2)oc2ccc(-c3cccc(C(=O)N4CCN(C)CC4)c3)cc12 | > 10 | > 10 |
| CNC(=O)c1c(-c2ccc(F)cc2)oc2ccc(-c3cccc(CO)c3)cc12 | > 10 | > 10 |
| CNC(=O)c1c(-c2ccc(F)cc2)oc2ccc(-c3cc(Br)cnc3F)cc12 | > 10 | > 10 |
| CNC(=O)c1c(-c2ccc(F)cc2)oc2ccc(-c3cccc(CCC(=O)O)c3)cc12 | 1 to 10 | > 10 |
| CNC(=O)c1c(-c2ccc(F)cc2)oc2ccc(-c3ccc(F)cc3Cl)cc12 | > 10 | > 10 |
| CCN(CC)C(=O)c1ccc(-c2ccc3oc(-c4ccc(F)cc4)c(C(=O)NC)c3c2)cc1 | 1 to 10 | > 10 |
| CNC(=O)c1c(-c2ccc(F)cc2)oc2ccc(-c3ccc(NC(=O)CCC(=O)O)cc3)cc12 | 1 to 10 | > 10 |
| CNC(=O)c1c(-c2ccc(F)cc2)oc2ccc(-c3ccc(F)cc3CN)cc12 | > 10 | > 10 |

| SMILES | IC50 [1] [µM] | EC50 (HCV replicon cells) [µM] |
| --- | --- | --- |
| CNC(=O)c1c(-c2ccc(F)cc2)oc2ccc(-c3sccc3C(=O)O)cc12 | > 10 | > 10 |
| CNC(=O)c1c(-c2ccc(F)cc2)oc2ccc(-c3ccc(F)c(C(=O)O)c3)cc12 | 1 to 10 | > 10 |
| CNC(=O)c1c(-c2ccc(F)cc2)oc2ccc(-c3cc(C(=O)O)cc([N+](=O)[O-])c3)cc12 | 0.25 to 1 | > 10 |
| CNC(=O)c1c(-c2ccc(F)cc2)oc2ccc(-c3ccc(C(=O)O)c(Cl)c3)cc12 | 1 to 10 | > 10 |
| CNC(=O)c1c(-c2ccc(F)cc2)oc2ccc(-c3cccc(C(=O)NCC(N)=O)c3)cc12 | > 10 | > 10 |
| CNC(=O)c1c(-c2ccc(F)cc2)oc2ccc(-c3cccc(C(=O)N4CCN(CCOC)CC4)c3)cc12 | > 10 | > 10 |
| CNC(=O)c1c(-c2ccc(F)cc2)oc2ccc(-c3cccc(C(=O)NCCc4ccccc4)c3)cc12 | > 10 | > 10 |
| CNC(=O)c1c(-c2ccc(F)cc2)oc2ccc(-c3ccc(C(=O)NCCC(N)=O)cc3)cc12 | > 10 | > 10 |
| CNC(=O)c1c(-c2ccc(F)cc2)oc2ccc(-c3ccc(C(=O)N(C)CCC#N)cc3)cc12 | 1 to 10 | > 10 |
| CNC(=O)c1c(-c2ccc(F)cc2)oc2ccc(-c3ccc(C(=O)N4CCC[C@H]4CO)cc3)cc12 | > 10 | > 10 |
| CNC(=O)c1c(-c2ccc(F)cc2)oc2ccc(-c3ccc(C(=O)NCC(N)=O)cc3)cc12 | > 10 | > 10 |
| CNC(=O)c1c(-c2ccc(F)cc2)oc2ccc(-c3ccc(C(=O)N(C)CCO)cc3)cc12 | 1 to 10 | > 10 |
| CNC(=O)c1c(-c2ccc(F)cc2)oc2ccc(-c3ccc(C(=O)N(C)CC(=O)N(C)C)cc3)cc12 | > 10 | > 10 |
| CNC(=O)c1c(-c2ccc(F)cc2)oc2ccc(-c3ccc(C(=O)NCCc4ccccc4Cl)cc3)cc12 | > 10 | > 10 |
| CNC(=O)c1c(-c2ccc(F)cc2)oc2ccc(-c3ccc(C(=O)NCCNC(C)=O)cc3)cc12 | > 10 | > 10 |
| CNC(=O)c1c(-c2ccc(F)cc2)oc2ccc(-c3ccc(C(=O)NCCc4ccc(OC)cc4)cc3)cc12 | > 10 | > 10 |
| CNC(=O)c1c(-c2ccc(F)cc2)oc2ccc(-c3ccc(C(=O)NCCOC)cc3)cc12 | > 10 | > 10 |
| CNC(=O)c1c(-c2ccc(F)cc2)oc2ccc(-c3cc(C(=O)O)ccc3Cl)cc12 | 1 to 10 | > 10 |
| CNC(=O)c1c(-c2ccc(F)cc2)oc2ccc(-c3ccc(Cl)c(C(=O)O)c3)cc12 | 1 to 10 | > 10 |
| CNC(=O)c1c(-c2ccc(F)cc2)oc2ccc(-c3cccc(C(=O)NC(CO)CO)c3)cc12 | 1 to 10 | > 10 |
| CNC(=O)c1c(-c2ccc(F)cc2)oc2ccc(-c3cccc(C(=O)Nc4cccc(C(=O)O)c4O)c3)cc12 | 0.25 to 1 | > 10 |
| CNC(=O)c1c(-c2ccc(F)cc2)oc2ccc(-c3cccc(C(=O)Nc4c(O)ncnc4O)c3)cc12 | 0.25 to 1 | > 10 |

| SMILES | IC50 [1] [µM] | EC50 (HCV replicon cells) [µM] |
| --- | --- | --- |
| CNC(=O)c1c(-c2ccc(F)cc2)oc2ccc(-c3cccc(C(=O)N[C@@H](CO)C(N)=O)c3)cc12 | 1 to 10 | > 10 |
| CNC(=O)c1c(-c2ccc(F)cc2)oc2ccc(-c3cccc(C(=O)N(C)c4ccncc4)c3)cc12 | 1 to 10 | > 10 |
| CNC(=O)c1c(-c2ccc(F)cc2)oc2ccc(-c3cccc(C(=O)NC(C)CC(=O)O)c3)cc12 (stereo not drawn) | 0.25 to 1 | > 10 |
| CNC(=O)c1c(-c2ccc(F)cc2)oc2ccc(-c3cccc(C(=O)Nc4cccc(CC(=O)O)c4)c3)cc12 | < 0.25 | > 10 |
| CNC(=O)c1c(-c2ccc(F)cc2)oc2ccc(-c3cccc(C(=O)Nc4n[nH]cc4C(N)=O)c3)cc12 | 1 to 10 | > 10 |
| CCOC(=O)[C@@H]1CCCN1C(=O)c1cccc(-c2ccc3oc(-c4ccc(F)cc4)c(C(=O)NC)c3c2)c1 | 1 to 10 | > 10 |
| CNC(=O)c1c(-c2ccc(F)cc2)oc2ccc(-c3cccc(C(=O)Nn4c(C)nnc4C)c3)cc12 | 0.25 to 1 | > 10 |
| CNC(=O)c1c(-c2ccc(F)cc2)oc2ccc(-c3cccc(C(=O)Nc4cncc(C(=O)O)c4)c3)cc12 | 0.25 to 1 | > 10 |
| C=CCOC(=O)[C@H](C)NC(=O)c1cccc(-c2ccc3oc(-c4ccc(F)cc4)c(C(=O)NC)c3c2)c1 | < 0.25 | > 10 |
| CNC(=O)c1c(-c2ccc(F)cc2)oc2cc([N+](=O)[O-])c(-c3cccc(C(=O)O)c3)cc12 | 1 to 10 | > 10 |
| CNC(=O)c1c(-c2ccc(F)cc2)oc2ccc(-c3cccc(C(=O)NC4(C(=O)NS(=O)(=O)C5CC5)CC4)c3)cc12 | < 0.25 | > 10 |
| C=C[C@@H]1C[C@]1(NC(=O)c1cccc(-c2ccc3oc(-c4ccc(F)cc4)c(C(=O)NC)c3c2)c1)C(=O)NS(=O)(=O)C1CC1 | 0.25 to 1 | > 10 |
| CNC(=O)c1c(-c2ccc(F)cc2)oc2ccc(-c3cccc(C(=O)NS(C)(=O)=O)c3)cc12 | 0.25 to 1 | > 10 |
| CNC(=O)c1c(-c2ccc(F)cc2)oc2ccc(-c3cccc(C(=O)NC(C)(C)C(=O)O)c3)cc12 | 0.25 to 1 | > 10 |
| CN1CN(C)c2c(-c3cccc(C(=O)NC(C)(C)c4ccccc4)c3)ccc3oc(-c4ccc(F)cc4)c(c23)C1=O | > 10 | > 10 |
| CNC(=O)c1c(-c2ccc(F)cc2)oc2ccc(-c3cccc(S(=O)(=O)NC(C)(C)C)c3)cc12 | > 4 | > 10 |
| CNC(=O)c1c(-c2ccc(F)cc2)oc2ccc(-c3cccc(S(=O)(=O)NC(C)C)c3)cc12 | > 10 | > 10 |
| CNC(=O)c1c(-c2ccc(F)cc2)oc2ccc(-c3cccc(S(=O)(=O)NC4CC4)c3)cc12 | > 10 | > 10 |
| CNC(=O)c1c(-c2ccc(F)cc2)oc2ccc(-c3cccc(S(=O)(=O)N4CCOCC4)c3)cc12 | > 10 | > 10 |
| CNC(=O)c1c(-c2ccc(F)cc2)oc2ccc(-c3cccc(S(=O)(=O)NCc4ccccc4)c3)cc12 | > 10 | > 10 |
| CNC(=O)c1c(-c2ccc(F)cc2)oc2ccc(-c3cccc(S(=O)(=O)NCCO)c3)cc12 | 1 to 10 | > 10 |
| CNC(=O)c1c(-c2ccc(F)cc2)oc2ccc(-c3cccc(C(=O)N4Cc5ccccc5C4)c3)cc12 | > 0.4 | > 10 |
